Test results taken from patent publication US20200246284A1 (Academia Sinica, priority 2015, published 2020).
Several values for one entry are separate records, joined by “and”; a condition that tells them apart may be missing. Equal entries are not always repeated.

How the values were obtained:
[1] = test system: Human Cancer Cell lines, Primary Patient Tumor Samples and normal tissues; experiment: Sensitivity classes over panel of cancer lines and normal tissues; assay type: cell-based; details: tumor cell lines of Table 12
[2] = test system: HBL1; details: human
Procedure: (§1) After 72 hours, the cultures were pulsed with Alamar Blue overnight, and the fluorescent intensity of resulted cultures was measured by a Synergy H1 plate-reader (BioTek Inc).

[3] = test system: Ly10; details: human
Procedure: as §1

[4] = test system: SMS-CTR rhabdomyosarcoma; experiment: Cytotoxicity sarcoma; assay type: cell-based; details: Homo sapiens; SMS-CTR embryonal type
[5] = test system: ICR mice; experiment: Acute intravenous 14-day toxicity; details: for Mortality (N/N): 14 days
[6] = test system: nude mice bearing prostate 22Rv/HL2; experiment: Blood chemistry, 22Rv/HL2 xenograft mice; details: 24 hrs after last treatment
[7] = test system: CL97; assay type: cell-based, human
[8] = test system: PC9; assay type: cell-based, human
[9] = test system: H3255; assay type: cell-based, human
[10] = test system: BCI-NSI hTERT bronchial epithelium; experiment: Cytotoxicity normal tissue 72 hr; assay type: cell-based, human; details: read-out: IC50
[11] = test system: H526; experiment: Cytotoxicity SCLC 72 hr alamar blue; assay type: cell-based, human
[12] = test system: CL100T1; assay type: cell-based, human
[13] = test system: H358; assay type: cell-based, human
[14] = test system: H889; experiment: Cytotoxicity SCLC 72 hr alamar blue; assay type: cell-based, human; details: read-out: IC50
[15] = test system: BEAS2B SV40 bronchial epithelium; assay type: cell-based, human
[16] = test system: HS578 breast epithelium; experiment: Cytotoxicity normal tissue 72 hr; assay type: cell-based, human
[17] = test system: EBC1; assay type: cell-based, human
[18] = test system: H1781; assay type: cell-based, human
[19] = test system: H1666; assay type: cell-based, human
[20] = test system: H1373; assay type: cell-based, human

SMILES: CN(C)CCNC(=O)c1cccc(NC(=O)Nc2ccc(N(CCCl)CCCl)cc2)c1 [BO-1055, Ureidomustine]
- share of tested cell lines with IC50 in sub-μM range [1]: 30%
- IC50 [2]: 0.87 µM
- IC50 [3]: 0.12 µM
- IC50 [4]: 10 µM
- Post dosing deaths at >1 hr ([5]; 50 mg/kg): 0
- Mortality (N/N) ([5]; 50 mg/kg i.v.): 0/6
- Post dosing deaths at >1 hr ([5]; 60 mg/kg): 0
- Mortality (N/N) ([5]; 60 mg/kg i.v.): 0/6
- Post dosing deaths at >1 hr ([5]; 70 mg/kg): 1
- Mortality (N/N) ([5]; 70 mg/kg i.v.): 1/6
- Post dosing deaths at >1 hr ([5]; 80 mg/kg): 6
- Mortality (N/N) ([5]; 80 mg/kg i.v.): all mice died and 6/6
- Post dosing deaths at >1 hr ([5]; 100 mg/kg): 6
- Mortality (N/N) ([5]; 100 mg/kg i.v.): 6/6
- ALT [6]: 56.83 U/L
- AST [6]: 102.17 U/L
- BUN [6]: 37.23 mg/dL
- CREA [6]: 0.38 mg/dL
- UA [6]: 3.73 mg/dL

SMILES: N.N.[Cl][Pt][Cl] [Cisplatin]
- IC50 [7]: < 15 µM
- IC50 [8]: 8.12 µM
- IC50 [9]: ≥ 25 µM
- IC50 [10]: 30 µM
- IC50 [11]: 2.85 µM
- IC50 [12]: 2.8 µM
- IC50 [13]: 5.9 µM
- IC50 [14]: 0.41 µM
- IC50 [15]: 4.1 µM
- IC50 [16]: > 100 µM
- IC50 [17]: ≥ 100 µM
- IC50 [18]: 1.67 µM
- IC50 [19]: ≥ 20 µM
- IC50 [20]: 9.46 µM
